Laboratory results as given in patent publication US20230351587A1, “METHODS AND SYSTEMS FOR PREDICTING NEURODEGENERATIVE DISEASE STATE” (New York Stem Cell Foundation, Inc., priority 2020, published 2023).

Tested on: healthy, LRRK2, and sporadic PD cells
Experiment: Relative distance between treated cell groups and 0.16% DMSO control (morphological profiles)
Format: cell-based, human
Conditions: vs 0.16% DMSO; tile embeddings, single cell embeddings and feature vector models; three increasing doses; FIGS. 13A-13C
Description: In this example, the same automated platform as described above in Examples 1 and 2 was implemented to morphologically profile large collections of cells that were treated using any of a number of perturbations. Example perturbations include bafilomycin, carbonyl cyanide m-chlorophenyl hydrazone (CCCP), MG312, rotenone, valinomycin as well as control groups (untreated and 0.16% DMSO). Specifically, healthy or PD cells of known subtype (e.g., LRKK2 subtype or sporadic subtype) were cultured in vitro and treated with varying doses of the perturbations. For example, for bafilomycin, treatments included 15.63 nM, 31.25 nM, and 62.5 nM bafilomycin. For CCCP, the treatments included 390.5 nM, 781 nM, and 1562 nM. For MG312, the treatments included 234.38 nM, 468.75 nM, and 937.5 nM. For rotenone, the treatments included 7.81 nM, 15.63 nM, and 31.25 nM. For valinomycin, the treatments included 3.91 nM, 7.81 nM, and 15.63 nM.
Following in vitro treatment of healthy cells and PD subtype cells using the aforementioned concentrations of perturbagens, the cells were imaged using the automated imaging platform and subsequently analyzed using predictive models. In particular, three predictive models were implemented: 1) predictive model including tile embeddings, 2) predictive model including single cell embeddings, and 3) predictive model including extracted features (e.g., CellProfiler features). […]

CO/C1=C\C(C)=C\[C@@H](C)[C@@H](O)[C@@H](C)C/C(C)=C/C=C/[C@H](OC)[C@@H]([C@@H](C)[C@@H](O)[C@H](C)[C@@]2(O)C[C@@H](O)[C@H](C)[C@@H](C(C)C)O2)OC1=O [Bafilomycin, bafilomycin]
relative distance between treated cell groups in comparison to controls: increase in distance in response to increasing dose
